The structures appear in SMILES notation. “And” between values parts separate entries of the source, which are not always exact repeats. Equal values may be shown once.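 In this assay, cells in 96-well plates receive the compound at five concentrations for 48 hours. Endpoints are linearly interpolated between the surrounding concentrations. GI50 = concentration required for 50% inhibition of growth. TGI is the concentration that stops growth completely.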

Test systems include SR leukemia; TK-10 renal; UO-31 renal; UACC-257 melanoma; SK-MEL-5 melanoma; SK-OV-3 ovarian; HCC-2998 colon; NCI-H522 lung; MCF7 breast; MDA-MB-435.
What all share (experiment): NCI tumour cell line growth inhibition, 48 h

Take `C#Cc1cccc(Oc2ccc(NC(=O)CCl)cc2)c1`: the GI50 in the experiment on SR leukemia is 11.5 µM; with TK-10 renal, greater than 82.5 µM; in the experiment on UO-31 renal it was greater than 82.5 µM; in the experiment on UACC-257 melanoma it was greater than 82.5 µM; in the experiment with SK-MEL-5 melanoma it was 33.6 µM; in the experiment with SK-OV-3 ovarian, greater than 82.5 µM. The GI50 with HCC-2998 colon was greater than 82.5 µM; in the experiment on NCI-H522 lung, 33.5 µM; in the experiment on MCF7 breast, 64.4 µM; in the experiment on MDA-MB-435 it was greater than 82.5 µM. Further, the TGI with SR leukemia, with TK-10 renal, with UO-31 renal, in the experiment with UACC-257 melanoma, in the experiment on SK-MEL-5 melanoma and with SK-OV-3 ovarian was greater than 82.5 µM throughout. For the same molecule, the TGI in the experiment on HCC-2998 colon, in the experiment with NCI-H522 lung, with MCF7 breast and with MDA-MB-435 was greater than 82.5 µM each time.

Consider `Cc1cc(C)cc(Nc2ccc([N+](=O)[O-])c(NCCN3CCOCC3)n2)c1`, for which the TGI in the experiment on SR leukemia is greater than 100 µM; in the experiment with TK-10 renal, greater than 100 µM; with UO-31 renal, greater than 100 µM; with UACC-257 melanoma, greater than 100 µM; in the experiment on SK-MEL-5 melanoma, 0.0332 µM and 0.256 µM; in the experiment on SK-OV-3 ovarian, greater than 100 µM. Further, the TGI in the experiment on HCC-2998 colon was greater than 100 µM; in the experiment on MCF7 breast it was greater than 100 µM; in the experiment on MDA-MB-435, 0.0115 µM. The GI50 in the experiment with TK-10 renal was 13 µM; in the experiment with UACC-257 melanoma it was greater than 100 µM; in the experiment with SK-MEL-5 melanoma it was 0.00082 µM; in the experiment with HCC-2998 colon it was 0.00435 µM and 0.0287 µM; with NCI-H522 lung it was 0.000235 µM; in the experiment with MCF7 breast, 0.000327 µM.

Turning to `O=C(O)c1cc(Cc2ccc(O)c(C(=O)O)c2)ccc1O` (tested in a mixture with another compound), the GI50 was 1.41 µM with SR leukemia; 6.17 µM in the experiment with TK-10 renal; 3.99 µM with UO-31 renal; 3.34 µM with UACC-257 melanoma; 4.9 µM in the experiment with SK-MEL-5 melanoma; 11.4 µM in the experiment with SK-OV-3 ovarian. In addition, the GI50 with HCC-2998 colon is 1.9 µM; in the experiment with NCI-H522 lung, 12.5 µM; in the experiment with MCF7 breast, 2.53 µM; with MDA-MB-435, 4.2 µM. The TGI with SR leukemia was determined as 8.67 µM; in the experiment on TK-10 renal it was 20.7 µM; in the experiment with UO-31 renal it was 19.9 µM; with UACC-257 melanoma, 7.77 µM; in the experiment with SK-MEL-5 melanoma, 19.8 µM; in the experiment with SK-OV-3 ovarian, 24.6 µM. For the same molecule, the TGI in the experiment on HCC-2998 colon is 3.73 µM; with NCI-H522 lung, 33.8 µM; in the experiment on MCF7 breast, 12.5 µM; in the experiment with MDA-MB-435 it was 16 µM.

Take `NCCP(=O)(O)O`: the TGI with SR leukemia, in the experiment on TK-10 renal, in the experiment on UO-31 renal, in the experiment on UACC-257 melanoma, in the experiment on SK-MEL-5 melanoma and with SK-OV-3 ovarian was greater than 100 µM throughout. The TGI in the experiment on HCC-2998 colon, in the experiment on NCI-H522 lung, in the experiment with MCF7 breast and in the experiment on MDA-MB-435 was greater than 100 µM in each case.

For `O=S(=O)(NCCNc1cc(-c2cn(-c3ccccc3)nc2-c2cccc(O)c2)ccn1)c1ccc(Cl)cc1`, the GI50 with SR leukemia was 1.71 µM; in the experiment with TK-10 renal it was 4.25 µM; with UO-31 renal, 2.92 µM; with UACC-257 melanoma it was 3.39 µM; in the experiment with SK-MEL-5 melanoma, 2.02 µM; in the experiment with SK-OV-3 ovarian, 3.62 µM. Besides, the GI50 with HCC-2998 colon was 1.99 µM; in the experiment on NCI-H522 lung, 2.16 µM; in the experiment with MCF7 breast, 2.74 µM; with MDA-MB-435, 2.86 µM. For the same molecule, the TGI in the experiment with SR leukemia was found to be 5.07 µM; in the experiment with TK-10 renal, 23.1 µM; with UO-31 renal, 12.1 µM; with UACC-257 melanoma, 10.3 µM; with SK-MEL-5 melanoma, 4 µM; in the experiment with SK-OV-3 ovarian, 19.6 µM. Also, the TGI in the experiment with HCC-2998 colon came out at 4.14 µM; with NCI-H522 lung, 5.79 µM; in the experiment with MCF7 breast, 9.43 µM; with MDA-MB-435, 10.1 µM.

For `O=C(Nc1ccccc1O)c1ccc(CNC(=O)c2sccc2Nc2ccnc(C(F)(F)F)c2)cc1`, the GI50 in the experiment on SR leukemia was 4.19 µM; with TK-10 renal, 4.76 µM; with UO-31 renal, 2.82 µM; in the experiment with UACC-257 melanoma, 4.61 µM; in the experiment with SK-MEL-5 melanoma, 1.94 µM; in the experiment on SK-OV-3 ovarian, 10.6 µM. In addition, the GI50 is 10.1 µM in the experiment with HCC-2998 colon, 5.06 µM in the experiment with NCI-H522 lung, 2.65 µM in the experiment with MCF7 breast and 4.09 µM in the experiment with MDA-MB-435. The TGI turned out to be 61.4 µM in the experiment with SR leukemia; 22.7 µM in the experiment on TK-10 renal; 15.9 µM in the experiment with UO-31 renal; 38.1 µM in the experiment on UACC-257 melanoma; 4.7 µM in the experiment on SK-MEL-5 melanoma; 37.3 µM with SK-OV-3 ovarian. In addition, the TGI in the experiment with HCC-2998 colon amounted to 22.4 µM; in the experiment on NCI-H522 lung it was 27.7 µM; in the experiment with MCF7 breast, 41.8 µM; in the experiment with MDA-MB-435 it was 17.8 µM.

In the case of `COc1ccc2c(c1)cn1c3ccc(O)cc3[nH]c(=O)c21`, the GI50 is 0.0543 µM with SR leukemia; 0.881 µM with TK-10 renal; 0.264 µM with UO-31 renal; 0.836 µM with UACC-257 melanoma; 0.0362 µM in the experiment on SK-MEL-5 melanoma; 0.202 µM in the experiment on SK-OV-3 ovarian. Besides, the GI50 in the experiment on HCC-2998 colon is 0.667 µM; in the experiment with NCI-H522 lung, 0.0442 µM; in the experiment on MCF7 breast, 0.366 µM; with MDA-MB-435, 0.0252 µM. Further, the TGI was determined as 2.7 µM in the experiment on SR leukemia; 2.49 µM with TK-10 renal; 13.1 µM in the experiment on UO-31 renal; 18.5 µM in the experiment on UACC-257 melanoma; 1.32 µM in the experiment with SK-MEL-5 melanoma; 12.8 µM in the experiment on SK-OV-3 ovarian. For the same molecule, the TGI in the experiment on HCC-2998 colon turned out to be 4.42 µM; in the experiment with NCI-H522 lung it was 1.24 µM; with MCF7 breast it was 1.95 µM; in the experiment with MDA-MB-435 it was 0.171 µM.

For the molecule `COc1ccc(-c2nnc(N3CCN(C(=O)CN4CCN(c5ccc(Cl)cc5)CC4)CC3)nc2-c2ccc(OC)cc2)cc1`, the GI50 in the experiment on SR leukemia was 31.5 µM; with TK-10 renal it was 58.5 µM; in the experiment with UO-31 renal, 6.92 µM; in the experiment on UACC-257 melanoma, 59.4 µM; in the experiment on SK-MEL-5 melanoma, 7.91 µM; in the experiment on SK-OV-3 ovarian, 36.6 µM. Also, the GI50 in the experiment on HCC-2998 colon was 56.8 µM; with NCI-H522 lung, 22.4 µM; in the experiment on MCF7 breast, 5.82 µM; with MDA-MB-435, 66.1 µM. Moreover, the TGI in the experiment with SR leukemia, with TK-10 renal, in the experiment on UO-31 renal, in the experiment on UACC-257 melanoma, in the experiment on SK-MEL-5 melanoma and in the experiment with SK-OV-3 ovarian was greater than 100 µM each time. For the same molecule, the TGI in the experiment with HCC-2998 colon, with NCI-H522 lung, in the experiment on MCF7 breast and with MDA-MB-435 was greater than 100 µM each time.

Take `C[C@]12C3CC[C@@]4(CO)C[C@]3(CCC1[C@](C)(C(=O)O)CC[C@@H]2O)CC4=O` (stereo not given in full): the GI50 in the experiment with SR leukemia, with TK-10 renal, in the experiment on UO-31 renal, with UACC-257 melanoma, in the experiment with SK-MEL-5 melanoma and in the experiment on SK-OV-3 ovarian was greater than 100 µM throughout. Moreover, the GI50 in the experiment on HCC-2998 colon, in the experiment with NCI-H522 lung, in the experiment with MCF7 breast and in the experiment with MDA-MB-435 was greater than 100 µM each time. In addition, the TGI with SR leukemia, in the experiment with TK-10 renal, with UO-31 renal, in the experiment on UACC-257 melanoma, in the experiment on SK-MEL-5 melanoma and in the experiment with SK-OV-3 ovarian was greater than 100 µM in each case. Moreover, the TGI with HCC-2998 colon, with NCI-H522 lung, with MCF7 breast and in the experiment on MDA-MB-435 was greater than 100 µM throughout.

`COc1ccc(/C=C(/C)[N+](=O)[O-])cc1`: the TGI in the experiment with SR leukemia is 3.56 µM; in the experiment with TK-10 renal it was 3.64 µM; in the experiment with UO-31 renal, 3.15 µM; in the experiment on UACC-257 melanoma it was 3.08 µM; with SK-MEL-5 melanoma it was 5.92 µM; with SK-OV-3 ovarian, 17.9 µM. Further, the TGI in the experiment with HCC-2998 colon was found to be 3.43 µM; in the experiment on NCI-H522 lung it was 1.81 µM; in the experiment with MCF7 breast it was 2.51 µM; in the experiment with MDA-MB-435, 4.16 µM.

As for `O=C(Nc1cccc(O)c1)c1cccc(NC2=C(Cl)C(=O)N(Cc3ccccc3)C2=O)c1`, the GI50 in the experiment on SR leukemia is 0.315 µM; with TK-10 renal, 15 µM; with UO-31 renal it was 6.61 µM; in the experiment with UACC-257 melanoma, 14 µM; in the experiment with SK-MEL-5 melanoma it was 6.09 µM; with SK-OV-3 ovarian it was 18.6 µM. The GI50 in the experiment with HCC-2998 colon is 15.8 µM; in the experiment with NCI-H522 lung it was 3.08 µM; with MCF7 breast, 23.4 µM; in the experiment with MDA-MB-435, 2.59 µM. Further, the TGI came to 3.36 µM in the experiment with SR leukemia; 29.8 µM with TK-10 renal; 21.7 µM in the experiment on UO-31 renal; 31.8 µM in the experiment with UACC-257 melanoma; 20.1 µM in the experiment on SK-MEL-5 melanoma; 34.6 µM in the experiment with SK-OV-3 ovarian. Moreover, the TGI in the experiment on HCC-2998 colon amounted to 29.4 µM; with NCI-H522 lung, 17.4 µM; in the experiment on MCF7 breast it was 59.9 µM; in the experiment on MDA-MB-435, 11.4 µM.

(Values after PubChem BioAssay (NCI).)
